Key:
Format in all cases: in vitro ADME
[1] = Metabolic stability in human liver microsomes (in vitro t1/2); conditions: human liver microsomes 0.5 mg/mL, 2 μM compound, % remaining at 60 min
Method: (§1) Metabolic Stability Assays The following are assays that may be used to evaluate the metabolic stability of compounds of Formula (I) in human, rat, or mouse microsomes. The assays follow a common procedure recited below. 1. […] Two separated experiments were performed as follows. a) With NADPH: 10 μL of 20 mg/mL liver microsomes and 40 μL of 10 mM NADPH were added to the incubations. […] The final concentration of microsomes was 0.5 mg/mL. 3. The reaction was started with the addition of 4 μL of 200 μM control compound or test compound solutions. Verapamil was used as positive control in this study. The final concentration of test compound or control compound was 2 μM. 4. Aliquots of 50 μL were taken from the reaction solution at 0, 15, 30, 45 and 60 min. […] Samples were centrifuged at 3,220 g for 40 minutes. A 90 μL aliquot of the supernatant was mixed with 90 μL of ultra-pure H2O and then used for LC-MS/MS analysis. 5. Data analysis. All calculations were carried out using Microsoft Excel. Peak areas were determined from extracted ion chromatograms. The slope value, k, was determined by linear regression of the natural logarithm of the remaining percentage of the parent drug vs. incubation time curve. The in vitro half-life (in vitro t1/2) was determined from the slope value: in vitro t1/2=−(0.693)/k.

[2] = Metabolic stability in mouse liver microsomes (in vitro t1/2); conditions: mouse liver microsomes 0.5 mg/mL, 2 μM compound, % remaining at 60 min
Method: as §1

[3] = Metabolic stability in rat liver microsomes (in vitro t1/2); conditions: rat liver microsomes 0.5 mg/mL, 2 μM compound; for Rat microsome % 60 min: % remaining at 60 min
Method: as §1

## CC(C)COc1cccc(-c2cc(COC(C)(C)C(=O)O)nn2Cc2ccccc2Cl)c1 [Example 27, 2-([1-[(2-Chlorophenyl)methyl]-5-(3-(2-methylpropoxy)phenyl)1H-pyrazol-3-yl]methoxy)-2-methylpropanoic acid]
[1]
  Human microsome % 60 min: 43%
[2]
  Mouse microsome % 60 min: 50%

## CC(C)Oc1cccc(-c2cc(COC(C)(C)C(=O)O)nn2Cc2ccccc2Cl)c1 [Example 35, 2-([1-[(2-Chlorophenyl)methyl]-5-(3-isopropoxyphenyl)1H-pyrazol-3-yl]methoxy)-2-methylpropanoic acid]
[1]
  Human microsome % 60 min: 67%
[2]
  Mouse microsome % 60 min: 31%

## COc1cccc(-c2cc(COC(C)(C)C(=O)O)nn2Cc2ccccc2OC)c1 [Example 36, 2-([5-(3-Methoxyphenyl)-1-[(2-methoxyphenyl)methyl]1H-pyrazol-3-yl]methoxy)-2-methylpropanoic acid]
[1]
  Human microsome % 60 min: 85%
[2]
  Mouse microsome % 60 min: 99%

## COc1cccc(-c2cc(COC(C)(C)C(=O)O)nn2Cc2ccccc2N(C)C)c1 [Example 38, 2-([1-[[2-(Dimethylamino)phenyl]methyl]-5-(3-methoxyphenyl)1H-pyrazol-3-yl]methoxy)-2-methylpropanoic acid]
[1]
  Human microsome % 60 min: 56%
[2]
  Mouse microsome % 60 min: 61%

## CC(C)(OCc1cc(-c2cccc(OC3CC3)c2)n(Cc2ccccc2Cl)n1)C(=O)O [Example 39, 2-([1-[(2-Chlorophenyl)methyl]-5-[3-(cyclopropoxy)phenyl]1H-pyrazol-3-yl]methoxy)-2-methylpropanoic acid]
[1]
  Human microsome % 60 min: 89%
[2]
  Mouse microsome % 60 min: 88%

## COc1cccc(-c2c(C)c(COC(C)(C)C(=O)O)nn2Cc2ccccc2Cl)c1 [Example 54, 2-({1-[(2-Chlorophenyl)methyl]-5-(3-methoxyphenyl)-4-methyl-1H-pyrazol-3-yl}methoxy)-2-methylpropionic acid]
[1]
  Human microsome % 60 min: 59%
[2]
  Mouse microsome % 60 min: 95%

## COc1ccc(-c2cc(COC(C)(C)C(=O)O)nn2Cc2ccccc2Cl)s1 [Example 64, 2-([1-[(2-Chlorophenyl)methyl]-5-(5-methoxythien-2-yl)-1H-pyrazol-3-yl]methoxy)-2-methylpropanoic acid]
[1]
  Human microsome % 60 min: 82%
[2]
  Mouse microsome % 60 min: 84%

## COc1csc(-c2cc(COC(C)(C)C(=O)O)nn2Cc2ccccc2Cl)c1 [Example 65, 2-([1-[(2-Chlorophenyl)methyl]-5-(4-methoxythien-2-yl)-1H-pyrazol-3-yl]methoxy)-2-methylpropanoic acid]
[1]
  Human microsome % 60 min: 78%
[2]
  Mouse microsome % 60 min: 92%

## COc1cc(-c2cc(COC(C)(C)C(=O)O)nn2Cc2ccccc2Cl)cs1 [Example 66, 2-([1-[(2-chlorophenyl)methyl]-5-(5-methoxythien-3-yl)-1H-pyrazol-3-yl]methoxy)-2-methylpropanoic acid]
[1]
  Human microsome % 60 min: 73%
[2]
  Mouse microsome % 60 min: 83%

## CCC(C)(OCc1cc(-c2cccc(OC)c2)n(Cc2ccccc2Cl)n1)C(=O)O (stereo not drawn) [Example 68, 2-([1-[(2-Chlorophenyl)methyl]-5-(3-methoxyphenyl)-1H-pyrazol-3-yl]methoxy)-2-methylbutanoic acid]
[1]
  Human microsome % 60 min: 95%
[2]
  Mouse microsome % 60 min: 91%

## CC[C@](C)(OCc1cc(-c2cccc(OC)c2)n(Cc2ccccc2Cl)n1)C(=O)O [Example 120, (2S)-2-([1-[(2-chlorophenyl)methyl]-5-(3-methoxyphenyl)-1H-pyrazol-3-yl]methoxy)-2-methylbutanoic Acid]
[1]
  Human microsome % 60 min: 81%
[3]
  Rat microsome % 60 min: 44%

## CC[C@@](C)(OCc1cc(-c2cccc(OC)c2)n(Cc2ccccc2Cl)n1)C(=O)O [Example 121, (2R)-2-([1-[(2-chlorophenyl)methyl]-5-(3-methoxyphenyl)-1H-pyrazol-3-yl]methoxy)-2-methylbutanoic Acid]
[1]
  Human microsome % 60 min: 82%
[3]
  Rat microsome % 60 min: 61%
[2]
  Mouse microsome % 60 min: 81%

## CC(C)COc1ncc(-c2cc(COC(C)(C)C(=O)O)nn2Cc2ccccc2Cl)s1 [Example 132, 2-([1-[(2-Chlorophenyl)methyl]-5-[2-(2-methylpropoxy)-1,3-thiazol-5-yl]-1H-pyrazol-3-yl]methoxy)-2-methylpropanoic acid]
[1]
  Human microsome % 60 min: 70%
[3]
  Rat microsome % 60 min: 70%
[2]
  Mouse microsome % 60 min: 64%

## CC(C)Oc1ncc(-c2cc(COC(C)(C)C(=O)O)nn2Cc2ccccc2Cl)s1 [Example 133, 2-([1-[(2-Chlorophenyl)methyl]-5-[2-(propan-2-yloxy)-1,3-thiazol-5-yl]-1H-pyrazol-3-yl]methoxy)-2-methylpropanoic acid]
[1]
  Human microsome % 60 min: 97%
[3]
  Rat microsome % 60 min: 91%
[2]
  Mouse microsome % 60 min: 90%

## CC(C)Cc1ncc(-c2cc(COC(C)(C)C(=O)O)nn2Cc2ccccc2Cl)o1 [Example 134, 2-([1-[(2-Chlorophenyl)methyl]-5-[2-(2-methylpropyl)-1,3-oxazol-5-yl]-1H-pyrazol-3-yl]methoxy)-2-methylpropanoic acid]
[1]
  Human microsome % 60 min: 80%
[3]
  Rat microsome % 60 min: 85%
[2]
  Mouse microsome % 60 min: 72%

## COc1cccc(-c2cc(COC(C)(C)C(=O)O)nn2Cc2ccccc2OC(C)C)c1 [Example 140, 2-([5-(3-Methoxyphenyl)-1-[[2-(propan-2-yloxy)phenyl]methyl]-1H-pyrazol-3-yl]methoxy)-2-methylpropanoic acid]
[1]
  Human microsome % 60 min: 67%
[3]
  Rat microsome % 60 min: 48%
[2]
  Mouse microsome % 60 min: 62%

## CC(C)(C)COc1cccc(-c2cc(COC(C)(C)C(=O)O)nn2-c2ccccc2N2CCC2)c1 [Example 155, 2-([1-[2-(Azetidin-1-yl)phenyl]-5-[3-(2,2-dimethylpropoxy)phenyl]-1H-pyrazol-3-yl]methoxy)-2-methylpropanoic acid]
[1]
  Human microsome % 60 min: 62%
[3]
  Rat microsome % 60 min: 70%
[2]
  Mouse microsome % 60 min: 37%

## CCn1ncc2ccc(-c3cc(COC(C)(C)C(=O)O)nn3-c3ccccc3Cl)cc21 [Example 157, 2-([1-(2-chlorophenyl)-5-(1-ethyl-1H-indazol-6-yl)-1H-pyrazol-3-yl]methoxy)-2-methylpropanoic acid]
[1]
  Human microsome % 60 min: 78%
[3]
  Rat microsome % 60 min: 97%

## Cn1ncc2cccc(-n3nc(COC(C)(C)C(=O)O)cc3-c3cccc(OC4CCC4)c3)c21 [Example 166, 2-([5-(3-Cyclobutoxyphenyl)-1-(1-methyl-1H-indazol-7-yl)-1H-pyrazol-3-yl]methoxy)-2-methylpropanoic acid]
[1]
  Human microsome % 60 min: 94%
[3]; in vitro t1/2
  Rat microsome t1/2, min: ∞
[2]
  Mouse microsome % 60 min: 82%

## Cn1ncc2cccc(-n3nc(COC(C)(C)C(=O)O)cc3-c3cccc(OCC4CCC4)c3)c21 [Example 168, 2-([5-[3-(cyclobutylmethoxy)phenyl]-1-(1-methyl-1H-indazol-7-yl)-1H-pyrazol-3-yl]methoxy)-2-methylpropanoic acid]
[1]
  Human microsome % 60 min: 78%
[3]
  Rat microsome % 60 min: 81%
[2]
  Mouse microsome % 60 min: 81%

## CC(C)(C)COc1cccc(-c2cc(COC(C)(C)C(=O)O)nn2-c2ccccc2Cl)c1 [Example 177, 2-([1-(2-chlorophenyl)-5-[3-(2,2-dimethylpropoxy)phenyl]-1H-pyrazol-3-yl]methoxy)-2-methylpropanoic acid]
[1]
  Human microsome % 60 min: 75%
[3]
  Rat microsome % 60 min: 90%
[2]
  Mouse microsome % 60 min: 87%

## CC(C)(OCc1cc(-c2cccc(OCC3CCC3)c2)n(-c2ccccc2Cl)n1)C(=O)O [Example 178, 2-([1-(2-Chlorophenyl)-5-[3-(Cyclobutylmethoxy)phenyl]-1H-pyrazol-3-yl]methoxy)-2-methylpropanoic acid]
[1]
  Human microsome % 60 min: 66%
[3]
  Rat microsome % 60 min: 72%
[2]
  Mouse microsome % 60 min: 70%

## CC(C)(OCc1cc(-c2cccc(OC3CC3)c2)n(-c2ccc(F)cc2N2CCC2)n1)C(=O)O [Example 183, 2-([1-[2-(Azetidin-1-yl)-4-fluorophenyl]-5-(3-cyclopropoxyphenyl)-1H-pyrazol-3-yl]methoxy)-2-methylpropanoic acid]
[1]
  Human microsome % 60 min: 66%
[3]
  Rat microsome % 60 min: 71%
[2]
  Mouse microsome % 60 min: 73%

— US11292767B2, “Heterocyclic inhibitors of MCT4” (Vettore, LLC, priority 2016, dated 2022)
